Results published in patent US20260021167A1, “COMPOSITIONS AND METHODS FOR TREATING OR PREVENTING NEURODEGENERATIVE DISEASES” (Delaware State University, priority 2022, published 2026).
Like-named read-outs stand apart in the source and are kept apart here.

Legend:
Assay type in all cases: cell-based, rat
N27 dopaminergic cells = experiment: Screening of SENP-1 inhibitors (LDH, MTT, ROS, Thioflavin-T) in PFF-induced PD model in vitro; settings: N27 dopaminergic cells after exposure to PFF for 24 hrs
Description: (§1) Cell Viability Assay. The MTT assay is a colorimetric assay that is based on the conversion of water-soluble MTT (3-(4,5-dimethylthiazol-2-yl)-2,5-diphenyltetrazolium bromide) into formazan crystal by mitochondrial dehydrogenase enzymes, soluble in 100% DMSO. The resulting solution is purple in color, and the color intensity is proportional to the viable cells for each well in a 96-well plate. A variety of SENP-1 inhibitors, such as SUMO-2 aldehyde, Momordin lc, streptonigrin, hinokiflavone, oleanolic acid and siRNA of SENP-1, were treated in N27 cells after PFF (1 μg/ml) exposure for 24 h. After adding 5 mM MTT dye to cells, the color intensity in MTT assays was measured using a spectrophotometer (SpectraMax M5e, Molecular devices, Dover, USA), at 570 nm with a reference wavelength of 630 nm. The cells were incubated with the MTT reagent (ab211091, Abcam) at 37° C. for 3 h, followed by solubilizing the formazan crystals in solution.
(§2) Cytotoxicity Assay. The lactate dehydrogenase (LDH) is a cytosolic enzyme that is released into the media during cellular stress and increased levels of cytotoxicity. The cytotoxicity assay was measured using reagents from the Pierce LDH Cytotoxicity Assay Kit (88954, Thermo). For the assay, 50 μL of media from each well after PFF exposure, followed by SENP-1 treatment, was put into wells of a new 96-well plate. The LDH reagents were prepared according to the protocol provided, and 50 μL of the LDH reagent was mixed into each well. The total 100 μL of media containing LDH and its reagent were incubated at 37° C. for 30 min, followed by the application of a stop solution. The mixture was analyzed using a spectrophotometer (SpectraMax M5e, Molecular devices) at 490 nm with a reference wavelength of 680 nm.
ROS Levels and Thioflavin-T Assessment. The reactive oxygen species (ROS) is a released byproduct during oxidative stress. On the other hand, thioflavin-T is an assay used to understand the level of protein aggregation that can be detrimental to cell survival. In order to assess the level of oxidative stress, all the SENP-1 inhibitors treated cells were incubated in media containing 5 μg/mL of the ROS reagent CellROX deep red reagent (C10422, Thermo Fisher Scientific) and 25 μg/mL of thioflavin-T reagent (CAS: 2390-54-7, Acros Organics) at 37° C. for 30 min. The cells were then washed 3 times with warm phosphate-buffered saline (PBS) without Ca^2+ or Mg^2+ (137 mM NaCl, 2.7 mM KCl, 4.3 mM Na2HPO4, and 1.47 mM KH2PO4), and several images from each well were collected using EVOS FL Cell Imaging Systems (Invitrogen, MA, USA). […] The intensity of red fluorescence corresponding to ROS levels and green labels corresponding to protein aggregation was analyzed by blinded raters using ImageJ. […]

N27 cells [1] = experiment: Cytotoxicity (LDH) assay after PFF exposure
Method: as §2
In this study, numerous commercially available SENP-1 inhibitors were tested for the recovery effects from preformed fibrils of alpha-synuclein (PFF)-induced PD models in vitro. The screening process includes several SENP-1 inhibitors, including specific SENP-1 inhibitors (e.g., SUMO-2 Aldehyde, Momordin lc, streptonigrin, hinokiflavonem, and siRNAs of SENP-1) and nonspecific SENP-1 inhibitors (e.g., oleanolic acid, gallic acid), in N27 dopaminergic cells after the exposure of PFF for 24 hrs.

N27 cells [2] = experiment: Cell viability (MTT) assay after PFF exposure; settings: N27 cells after PFF (1 μg/ml) exposure for 24 h; compared to PFF only control
Description: as §1
In this study, numerous commercially available SENP-1 inhibitors were tested for the recovery effects from preformed fibrils of alpha-synuclein (PFF)-induced PD models in vitro. […]

N27 cells [3] = experiment: ROS level (CellROX deep red) after PFF treatment; settings: compared to PFF only control
Method: ROS Levels and Thioflavin-T Assessment. The reactive oxygen species (ROS) is a released byproduct during oxidative stress. On the other hand, thioflavin-T is an assay used to understand the level of protein aggregation that can be detrimental to cell survival. In order to assess the level of oxidative stress, all the SENP-1 inhibitors treated cells were incubated in media containing 5 μg/mL of the ROS reagent CellROX deep red reagent (C10422, Thermo Fisher Scientific) and 25 μg/mL of thioflavin-T reagent (CAS: 2390-54-7, Acros Organics) at 37° C. for 30 min. The cells were then washed 3 times with warm phosphate-buffered saline (PBS) without Ca^2+ or Mg^2+ (137 mM NaCl, 2.7 mM KCl, 4.3 mM Na2HPO4, and 1.47 mM KH2PO4), and several images from each well were collected using EVOS FL Cell Imaging Systems (Invitrogen, MA, USA). A minimum of 2 wells were dedicated to each group, and the experiments were repeated 3-4 times independently (total replicated: n=8-10/group). The intensity of red fluorescence corresponding to ROS levels and green labels corresponding to protein aggregation was analyzed by blinded raters using ImageJ.

## CC1(C)CC[C@]2(C(=O)O)CC[C@]3(C)C(=CC[C@@H]4[C@@]5(C)CC[C@H](O)C(C)(C)[C@@H]5CC[C@]43C)[C@@H]2C1 [oleanolic acid]
N27 dopaminergic cells
  efficacy in preventing protein aggregation-mediated damage and reversing PFF-induced damage (LDH, MTT, ROS, Thioflavin-T assays): did not show an efficacy

## O=c1cc(-c2ccc(Oc3c(O)cc4oc(-c5ccc(O)cc5)cc(=O)c4c3O)cc2)oc2cc(O)cc(O)c12 [Hinokiflavone, hinokiflavone]
N27 cells [1]
  cytotoxicity derived from PFF (LDH assay): significantly reduced the cytotoxicity

## COC1=C(N)C(=O)c2nc(-c3nc(C(=O)O)c(C)c(-c4ccc(OC)c(OC)c4O)c3N)ccc2C1=O [Streptonigrin, streptonigrin]
N27 cells [2]
  cell viability from PFF-mediated toxicity (MTT assay): significantly enhanced the cell viability
N27 dopaminergic cells
  efficacy in preventing protein aggregation-mediated damage and reversing PFF-induced damage (LDH, MTT, ROS, Thioflavin-T assays): clearly efficacious
N27 cells [1]; N27 cells, PFF treatment, compared to PFF only control
  cytotoxicity derived from PFF (LDH assay): significantly reduced the cytotoxicity
N27 cells [3]
  level of ROS: reduced the level of ROS

## O=C(O)c1cc(O)c(O)c(O)c1 [gallic acid]
N27 dopaminergic cells
  efficacy in preventing protein aggregation-mediated damage and reversing PFF-induced damage (LDH, MTT, ROS, Thioflavin-T assays): did not show an efficacy
